# Earlier results in patent US7709654B2, “Process for producing oxazole, imidazole, pyrrazole boryl compounds” (Board of Trustees of Michigan State University, priority 2006, dated 2010).
# Biological target: T1, cyclooxygenase-2 (COX-2) (Homo sapiens, UniProt P35354)
# T1 sequence (P35354 18-604): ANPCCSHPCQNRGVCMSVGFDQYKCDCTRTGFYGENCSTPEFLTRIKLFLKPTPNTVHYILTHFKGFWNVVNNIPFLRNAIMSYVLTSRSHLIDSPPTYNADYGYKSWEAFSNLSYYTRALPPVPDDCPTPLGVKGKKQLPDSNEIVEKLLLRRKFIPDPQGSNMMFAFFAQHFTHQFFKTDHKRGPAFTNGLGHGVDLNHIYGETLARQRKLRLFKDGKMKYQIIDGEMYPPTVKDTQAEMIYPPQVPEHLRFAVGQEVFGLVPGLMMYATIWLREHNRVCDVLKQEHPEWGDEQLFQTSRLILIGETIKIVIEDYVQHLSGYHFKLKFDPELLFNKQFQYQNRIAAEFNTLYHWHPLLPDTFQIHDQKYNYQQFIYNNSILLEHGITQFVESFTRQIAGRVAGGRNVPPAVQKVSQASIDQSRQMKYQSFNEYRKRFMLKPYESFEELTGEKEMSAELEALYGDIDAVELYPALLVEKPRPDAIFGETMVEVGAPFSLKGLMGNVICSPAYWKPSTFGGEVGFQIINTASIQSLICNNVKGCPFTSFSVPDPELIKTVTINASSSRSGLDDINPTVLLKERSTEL
# Conditions: COX-2 versus COX-1
structure (smiles),measurement,value
"Cc1nc(C2CCCCC2)c(-c2ccc(S(N)(=O)=O)c(F)c2)o1 [JTE-522, 4-(4-cyclohexyl-2-methyloxazol-5-yl)-2-fluorobenzenesulfonamide]",COX-2 inhibition (in words),"potent, highly selective, and orally active COX-2 inhibitor"
